Laboratory results reported in patent publication US20050175550A1, “Compositions for oral use” (priority 2000, published 2005).
In brackets after ≈: the same amount, converted by molar mass.

Assays:
Experiment in all cases: MIC by agar plate dilution method on standard strains (Example 3)
Type in all cases: cell-based
[1] = test system: Staphylococcus epidermidis ATCC12228
Experimental: Minimum growth-inhibiting concentrations of trifluoromethionine and other antibacterial drugs on standard strains were determined by an agar plate dilution method according to the standard method of Japanese Society of Chemotherapy.
Drug solutions at a concentration 10 times as high as the maximum applicable concentration were prepared as original solutions of test drugs given in Table 2 (as to solvents used for this purpose, reference should be made also to Table 2). Serial two-fold dilution series of the original solutions were prepared at desired stages, and 1 ml each of the diluted drug solutions was added to 9 ml of media given in Table 3 to prepare drug plates. Concentration range of the individual drugs used are as follows: trifluoromethionine: 400-0.025 μg/ml (15 stages), tetracycline: 100-0.025 μg/ml (13 stages), and clarithromycin: 100-0.025 μg/ml (13 stages).
(§1) • 1) Bacterial solutions stocked at −80° C. were inoculated on agar media (as to media used, reference should be made to Table 3), and then incubated at 37° C. overnight. When desired, subculturing was conducted once more on the same agar media (by overnight incubation at 37° C.). • 2) Colonies growing on the agar media were sampled by a platinum loop, suspended in liquid media (reference should be made to Table 3) and statically incubated at 37° C. for 18 hours (preculturing). • 3) Preculturing was continued up to McFarland 0.5 (McFarland 0.5=about 10^8 CFU/ml), and then the culture broths were diluted with Muellar Hinton Broth to make 10^6 CFU/ml. 5 μl each of the diluted solutions were inoculated on the above-mentioned drug plates by an inoculator Microplanter.
Thus, bacterial solutions at about 10^8 CFU/ml can be easily prepared by use of McFarland 0.5. Bacterial solutions at such a turbidity are commercially available, but can be easily prepared. McFarland 0.5 can be obtained by adding 0.5 ml of an aqueous 0.048 mol/l barium chloride solution to 99.5 ml of 1% v/v (0.18 mol/l) sulfuric acid. • 4) The individual bacteria were incubated at 37° C. for 18-20 hours and then the growth was determined in the same manner as in Example 2 to obtain minimum growth-inhibiting concentrations.

[2] = test system: Bacillus subtilis ATCC6633
Experimental: as §1, with “Drug solutions at a concentration 10 times as high as the maximum applicable concentration were prepared as original solutions of test drugs given in Table 2 (as to solvents used for this purpose, reference should be made also to Table 2). Serial two-fold dilution series of the original solutions were prepared at desired stages, and 1 ml each of the diluted drug solutions was added to 9 ml of media given in Table 3 to prepare drug plates. […] • 1)” for “• 1)”, “inoculator Microplanter. […] Thus, bacterial solutions at about 10^8 CFU/ml can be easily prepared by use of McFarland 0.5. Bacterial solutions at such a turbidity are commercially available, but can be easily prepared.” for “inoculator Microplanter.”

[3] = test system: Enterococcus faecium ATCC19434
Experimental: as §1, with “Drug solutions at a concentration 10 times as high as the maximum applicable concentration were prepared as original solutions of test drugs given in Table 2 (as to solvents used for this purpose, reference should be made also to Table 2). Serial two-fold dilution series of the original solutions were prepared at desired stages, and 1 ml each of the diluted drug solutions was added to 9 ml of media given in Table 3 to prepare drug plates. […] • 1)” for “• 1)”, “inoculator Microplanter. […] Thus, bacterial solutions at about 10^8 CFU/ml can be easily prepared by use of McFarland 0.5. Bacterial solutions at such a turbidity are commercially available, but can be easily prepared.” for “inoculator Microplanter.”

[4] = test system: Escherichia coli ATCC25922
Experimental: as §1, with “Drug solutions at a concentration 10 times as high as the maximum applicable concentration were prepared as original solutions of test drugs given in Table 2 (as to solvents used for this purpose, reference should be made also to Table 2). Serial two-fold dilution series of the original solutions were prepared at desired stages, and 1 ml each of the diluted drug solutions was added to 9 ml of media given in Table 3 to prepare drug plates. […] • 1)” for “• 1)”, “inoculator Microplanter. […] Thus, bacterial solutions at about 10^8 CFU/ml can be easily prepared by use of McFarland 0.5. Bacterial solutions at such a turbidity are commercially available, but can be easily prepared.” for “inoculator Microplanter.”

[5] = test system: Escherichia coli ATCC35218
Experimental: as §1, with “Drug solutions at a concentration 10 times as high as the maximum applicable concentration were prepared as original solutions of test drugs given in Table 2 (as to solvents used for this purpose, reference should be made also to Table 2). Serial two-fold dilution series of the original solutions were prepared at desired stages, and 1 ml each of the diluted drug solutions was added to 9 ml of media given in Table 3 to prepare drug plates. […] • 1)” for “• 1)”, “inoculator Microplanter. […] Thus, bacterial solutions at about 10^8 CFU/ml can be easily prepared by use of McFarland 0.5. Bacterial solutions at such a turbidity are commercially available, but can be easily prepared.” for “inoculator Microplanter.”

[6] = test system: Haemophilus influenzae ATCC33391
Experimental: as §1, with “Drug solutions at a concentration 10 times as high as the maximum applicable concentration were prepared as original solutions of test drugs given in Table 2 (as to solvents used for this purpose, reference should be made also to Table 2). Serial two-fold dilution series of the original solutions were prepared at desired stages, and 1 ml each of the diluted drug solutions was added to 9 ml of media given in Table 3 to prepare drug plates. […] • 1)” for “• 1)”, “inoculator Microplanter. […] Thus, bacterial solutions at about 10^8 CFU/ml can be easily prepared by use of McFarland 0.5. Bacterial solutions at such a turbidity are commercially available, but can be easily prepared.” for “inoculator Microplanter.”

[7] = test system: Haemophilus influenzae ATCC49247
Experimental: as §1, with “Drug solutions at a concentration 10 times as high as the maximum applicable concentration were prepared as original solutions of test drugs given in Table 2 (as to solvents used for this purpose, reference should be made also to Table 2). Serial two-fold dilution series of the original solutions were prepared at desired stages, and 1 ml each of the diluted drug solutions was added to 9 ml of media given in Table 3 to prepare drug plates. […] • 1)” for “• 1)”, “inoculator Microplanter. […] Thus, bacterial solutions at about 10^8 CFU/ml can be easily prepared by use of McFarland 0.5. Bacterial solutions at such a turbidity are commercially available, but can be easily prepared.” for “inoculator Microplanter.”

[8] = test system: Haemophilus influenzae ATCC49766
Experimental: as §1, with “Drug solutions at a concentration 10 times as high as the maximum applicable concentration were prepared as original solutions of test drugs given in Table 2 (as to solvents used for this purpose, reference should be made also to Table 2). Serial two-fold dilution series of the original solutions were prepared at desired stages, and 1 ml each of the diluted drug solutions was added to 9 ml of media given in Table 3 to prepare drug plates. […] • 1)” for “• 1)”, “inoculator Microplanter. […] Thus, bacterial solutions at about 10^8 CFU/ml can be easily prepared by use of McFarland 0.5. Bacterial solutions at such a turbidity are commercially available, but can be easily prepared.” for “inoculator Microplanter.”

[9] = test system: Klebsiella pneumoniae ATCC700603
Experimental: as §1, with “Drug solutions at a concentration 10 times as high as the maximum applicable concentration were prepared as original solutions of test drugs given in Table 2 (as to solvents used for this purpose, reference should be made also to Table 2). Serial two-fold dilution series of the original solutions were prepared at desired stages, and 1 ml each of the diluted drug solutions was added to 9 ml of media given in Table 3 to prepare drug plates. […] • 1)” for “• 1)”, “inoculator Microplanter. […] Thus, bacterial solutions at about 10^8 CFU/ml can be easily prepared by use of McFarland 0.5. Bacterial solutions at such a turbidity are commercially available, but can be easily prepared.” for “inoculator Microplanter.”

[10] = test system: Micrococcus luteus ATCC9341
Experimental: as §1, with “Drug solutions at a concentration 10 times as high as the maximum applicable concentration were prepared as original solutions of test drugs given in Table 2 (as to solvents used for this purpose, reference should be made also to Table 2). Serial two-fold dilution series of the original solutions were prepared at desired stages, and 1 ml each of the diluted drug solutions was added to 9 ml of media given in Table 3 to prepare drug plates. […] • 1)” for “• 1)”, “inoculator Microplanter. […] Thus, bacterial solutions at about 10^8 CFU/ml can be easily prepared by use of McFarland 0.5. Bacterial solutions at such a turbidity are commercially available, but can be easily prepared.” for “inoculator Microplanter.”

[11] = test system: Moraxella (Branhamella) catarrhalis ATCC25238
Experimental: as §1, with “Drug solutions at a concentration 10 times as high as the maximum applicable concentration were prepared as original solutions of test drugs given in Table 2 (as to solvents used for this purpose, reference should be made also to Table 2). Serial two-fold dilution series of the original solutions were prepared at desired stages, and 1 ml each of the diluted drug solutions was added to 9 ml of media given in Table 3 to prepare drug plates. […] • 1)” for “• 1)”, “inoculator Microplanter. […] Thus, bacterial solutions at about 10^8 CFU/ml can be easily prepared by use of McFarland 0.5. Bacterial solutions at such a turbidity are commercially available, but can be easily prepared.” for “inoculator Microplanter.”

[12] = test system: Moraxella (Branhamella) catarrhalis ATCC25240
Experimental: as §1, with “Drug solutions at a concentration 10 times as high as the maximum applicable concentration were prepared as original solutions of test drugs given in Table 2 (as to solvents used for this purpose, reference should be made also to Table 2). Serial two-fold dilution series of the original solutions were prepared at desired stages, and 1 ml each of the diluted drug solutions was added to 9 ml of media given in Table 3 to prepare drug plates. […] • 1)” for “• 1)”, “inoculator Microplanter. […] Thus, bacterial solutions at about 10^8 CFU/ml can be easily prepared by use of McFarland 0.5. Bacterial solutions at such a turbidity are commercially available, but can be easily prepared.” for “inoculator Microplanter.”

N[C@@H](CCSC(F)(F)F)C(=O)O [TFM, Trifluoromethionine]
MIC [1]: >400 µg/mL | MIC [2]: >400 µg/mL | MIC [3]: >400 µg/mL | MIC [4]: >400 µg/mL | MIC [5]: >400 µg/mL | MIC [6]: 50 µg/mL (≈ 246 µM) | MIC [7]: 50 µg/mL (≈ 246 µM) | MIC [8]: 25 µg/mL (≈ 123 µM) | MIC [9]: >400 µg/mL | MIC [10]: >400 µg/mL | MIC [11]: 100 µg/mL (≈ 492 µM) | MIC [12]: 25 µg/mL (≈ 123 µM)
